Laboratory results as given in patent publication US20120245137A1 (Zalicus Pharmaceuticals Ltd., priority 2009, published 2012).
Read-outs that look alike come from different tables or passages of the source.

Columns and labels:
Format in all cases: cell-based
Human Cav 2.2 channels = Human Cav 2.2 channels (Homo sapiens, UniProt Q00975); assay: Fluorescent assay for CaV2.2 channels using potassium depolarization (VIPR/FLIPR); conditions: FLIPR data; for CAv2.2 IC50 Ratio closed/inact.: ratio closed/inactivated IC50
Procedure, shortened: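 Fluo-4 calcium fluorescence (480/535 nm) was recorded on VIPR or FLIPR after depolarization to 70 mM final potassium. Before this, cells were preincubated 30 min at 25 °C with compound in 4–30 mM potassium, so that state-dependent block could be assessed; the cells were HEK293 coexpressing Cav2.2, α2δ, β and Kir2.3.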

CAv1.2 = CAv1.2 (Homo sapiens, UniProt Q13936); assay: FLIPR data, CAv1.2 channel blocking (Table 6); conditions: for CAv1.2 IC50 Ratio closed/inact.: ratio closed/inactivated IC50
T-type calcium channel [1] = biological target: T-type calcium channel (Homo sapiens, UniProt O95180); assay: T-type channel blocking, FLIPR data (Table 6); conditions: for CAv3.2 IC50 Ratio closed/inact.: CAv3.2, ratio closed/inactivated IC50
From the text: (§1) Another method, high-throughput spectrophotometric assay, utilizes loading of the cell lines with a fluorescent dye sensitive to intracellular calcium concentration and subsequent examination of the effects of compounds on the ability of depolarization by potassium chloride or other means to alter intracellular calcium levels.

T-type calcium channel [2] = biological target: T-type calcium channel (Homo sapiens, UniProt O43497); assay: T-type channel blocking, FLIPR data (Table 6); conditions: CAv3.1
From the text: as §1

[3] = closed state, read-out: CAv2.2 IC50 Closed
[4] = inactivated state, read-out: CAv2.2 IC50 Inact.
[5] = closed state, read-out: CAv1.2 IC50 Closed
[6] = inactivated state, read-out: CAv1.2 IC50 Inact.
[7] = CAv3.2, closed state, read-out: CAv3.2 IC50 Closed
[8] = CAv3.2, inactivated state, read-out: CAv3.2 IC50 Inact.

Sequence of CAv1.2 (Q13936 whole entry): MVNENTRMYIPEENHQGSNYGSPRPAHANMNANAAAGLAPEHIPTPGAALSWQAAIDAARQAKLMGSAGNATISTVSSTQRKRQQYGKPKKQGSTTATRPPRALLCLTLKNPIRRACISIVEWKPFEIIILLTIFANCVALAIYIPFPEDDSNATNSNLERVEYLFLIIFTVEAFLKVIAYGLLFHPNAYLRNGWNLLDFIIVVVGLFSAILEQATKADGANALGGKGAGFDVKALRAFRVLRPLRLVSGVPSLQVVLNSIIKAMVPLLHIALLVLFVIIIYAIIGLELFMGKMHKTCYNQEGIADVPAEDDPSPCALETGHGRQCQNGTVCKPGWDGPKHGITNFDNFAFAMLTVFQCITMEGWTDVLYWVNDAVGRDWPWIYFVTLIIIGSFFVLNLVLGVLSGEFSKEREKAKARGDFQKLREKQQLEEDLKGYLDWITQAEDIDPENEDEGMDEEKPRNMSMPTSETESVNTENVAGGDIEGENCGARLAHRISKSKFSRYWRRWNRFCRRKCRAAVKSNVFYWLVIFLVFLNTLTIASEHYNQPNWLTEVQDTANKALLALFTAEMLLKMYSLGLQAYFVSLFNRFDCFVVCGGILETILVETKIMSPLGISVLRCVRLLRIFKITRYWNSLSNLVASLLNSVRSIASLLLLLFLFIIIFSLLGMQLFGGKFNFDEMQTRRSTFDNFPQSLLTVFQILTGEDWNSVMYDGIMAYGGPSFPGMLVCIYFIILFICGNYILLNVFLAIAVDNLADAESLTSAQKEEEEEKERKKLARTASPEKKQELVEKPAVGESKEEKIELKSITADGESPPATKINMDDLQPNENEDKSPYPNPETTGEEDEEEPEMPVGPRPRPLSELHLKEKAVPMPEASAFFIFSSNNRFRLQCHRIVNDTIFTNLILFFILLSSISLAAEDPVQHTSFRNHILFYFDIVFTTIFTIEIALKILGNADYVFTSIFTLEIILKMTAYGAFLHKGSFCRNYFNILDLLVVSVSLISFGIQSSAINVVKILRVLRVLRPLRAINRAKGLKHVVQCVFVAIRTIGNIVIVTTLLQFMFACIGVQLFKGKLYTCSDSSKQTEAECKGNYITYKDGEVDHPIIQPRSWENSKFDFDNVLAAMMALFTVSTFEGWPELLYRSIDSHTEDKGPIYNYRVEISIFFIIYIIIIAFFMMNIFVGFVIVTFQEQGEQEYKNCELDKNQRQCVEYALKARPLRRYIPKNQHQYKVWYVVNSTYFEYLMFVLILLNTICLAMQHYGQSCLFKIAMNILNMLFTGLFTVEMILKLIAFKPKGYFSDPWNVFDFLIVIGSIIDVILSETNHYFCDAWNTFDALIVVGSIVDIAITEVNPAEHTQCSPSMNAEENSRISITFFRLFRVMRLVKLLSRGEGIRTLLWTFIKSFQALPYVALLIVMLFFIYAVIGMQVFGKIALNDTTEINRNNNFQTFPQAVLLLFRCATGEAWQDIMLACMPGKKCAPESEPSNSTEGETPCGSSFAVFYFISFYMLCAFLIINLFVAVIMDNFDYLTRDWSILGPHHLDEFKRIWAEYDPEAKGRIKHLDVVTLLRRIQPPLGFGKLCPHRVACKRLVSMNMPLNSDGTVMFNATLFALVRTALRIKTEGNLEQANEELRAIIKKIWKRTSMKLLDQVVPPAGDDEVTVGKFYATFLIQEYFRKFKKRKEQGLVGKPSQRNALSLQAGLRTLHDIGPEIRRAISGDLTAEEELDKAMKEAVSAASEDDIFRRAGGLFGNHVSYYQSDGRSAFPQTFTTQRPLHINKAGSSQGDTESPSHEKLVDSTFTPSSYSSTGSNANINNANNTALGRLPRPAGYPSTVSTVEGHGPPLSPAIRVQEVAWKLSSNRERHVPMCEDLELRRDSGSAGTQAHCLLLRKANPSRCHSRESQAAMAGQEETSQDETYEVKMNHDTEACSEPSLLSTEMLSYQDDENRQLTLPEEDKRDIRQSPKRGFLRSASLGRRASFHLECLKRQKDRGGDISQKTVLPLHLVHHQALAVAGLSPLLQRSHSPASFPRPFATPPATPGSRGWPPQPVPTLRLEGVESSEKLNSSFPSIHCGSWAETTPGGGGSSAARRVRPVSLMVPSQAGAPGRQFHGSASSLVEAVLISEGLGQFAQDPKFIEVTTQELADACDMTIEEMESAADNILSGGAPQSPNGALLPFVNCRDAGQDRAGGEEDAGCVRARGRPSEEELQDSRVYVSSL
Sequence of CAv1.2 (P54289 25-1103 partner): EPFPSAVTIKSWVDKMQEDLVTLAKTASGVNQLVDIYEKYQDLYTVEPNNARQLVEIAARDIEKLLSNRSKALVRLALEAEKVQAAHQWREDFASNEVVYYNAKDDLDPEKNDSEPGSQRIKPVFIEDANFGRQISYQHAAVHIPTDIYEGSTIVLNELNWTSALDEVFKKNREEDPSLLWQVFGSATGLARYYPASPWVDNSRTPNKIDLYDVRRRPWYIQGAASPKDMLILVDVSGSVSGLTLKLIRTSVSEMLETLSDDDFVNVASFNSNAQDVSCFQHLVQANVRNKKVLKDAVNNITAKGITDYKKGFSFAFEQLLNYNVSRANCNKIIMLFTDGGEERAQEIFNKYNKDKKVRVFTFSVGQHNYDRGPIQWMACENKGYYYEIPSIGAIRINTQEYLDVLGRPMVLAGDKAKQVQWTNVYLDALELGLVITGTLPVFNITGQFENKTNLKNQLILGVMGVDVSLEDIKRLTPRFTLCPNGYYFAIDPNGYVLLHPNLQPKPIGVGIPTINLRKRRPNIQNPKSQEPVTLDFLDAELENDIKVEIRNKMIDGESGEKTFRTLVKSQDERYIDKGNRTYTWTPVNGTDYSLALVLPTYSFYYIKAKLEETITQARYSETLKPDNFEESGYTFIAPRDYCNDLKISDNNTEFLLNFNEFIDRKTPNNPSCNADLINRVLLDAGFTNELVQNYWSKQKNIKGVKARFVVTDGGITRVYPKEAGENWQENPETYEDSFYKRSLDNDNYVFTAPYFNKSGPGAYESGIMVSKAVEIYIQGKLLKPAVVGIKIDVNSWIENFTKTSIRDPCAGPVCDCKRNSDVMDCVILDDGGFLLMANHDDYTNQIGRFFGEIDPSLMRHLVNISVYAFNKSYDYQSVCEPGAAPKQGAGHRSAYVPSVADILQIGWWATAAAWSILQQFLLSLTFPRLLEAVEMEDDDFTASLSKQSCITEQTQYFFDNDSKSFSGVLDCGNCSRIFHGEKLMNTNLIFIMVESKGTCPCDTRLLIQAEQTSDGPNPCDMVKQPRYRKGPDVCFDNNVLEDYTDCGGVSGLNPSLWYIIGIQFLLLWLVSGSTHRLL
Sequence of CAv1.2 (Q08289 whole entry partner): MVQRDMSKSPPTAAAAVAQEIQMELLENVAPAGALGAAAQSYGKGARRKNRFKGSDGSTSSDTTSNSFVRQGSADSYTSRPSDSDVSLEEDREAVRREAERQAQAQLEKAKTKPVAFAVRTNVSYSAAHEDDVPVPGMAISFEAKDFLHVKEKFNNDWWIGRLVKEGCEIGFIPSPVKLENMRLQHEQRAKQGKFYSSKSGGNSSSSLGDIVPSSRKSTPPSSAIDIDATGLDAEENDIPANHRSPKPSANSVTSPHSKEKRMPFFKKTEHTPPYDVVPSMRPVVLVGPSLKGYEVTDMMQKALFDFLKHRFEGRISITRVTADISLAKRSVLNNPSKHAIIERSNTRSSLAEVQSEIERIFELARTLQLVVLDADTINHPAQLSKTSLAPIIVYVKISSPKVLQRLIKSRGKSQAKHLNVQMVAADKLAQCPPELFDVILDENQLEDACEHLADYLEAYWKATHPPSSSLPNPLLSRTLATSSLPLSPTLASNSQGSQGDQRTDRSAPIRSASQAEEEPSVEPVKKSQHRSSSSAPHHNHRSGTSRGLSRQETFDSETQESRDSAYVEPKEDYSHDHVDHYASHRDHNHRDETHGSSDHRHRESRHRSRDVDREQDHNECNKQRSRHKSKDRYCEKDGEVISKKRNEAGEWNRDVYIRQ

SMILES | IC50 (Human Cav 2.2 channels; [3]) [µM] | IC50 (Human Cav 2.2 channels; [4]) [µM] | CAv2.2 IC50 Ratio closed/inact. (Human Cav 2.2 channels) | IC50 (CAv1.2; [5]) [µM] | IC50 (CAv1.2; [6]) [µM] | CAv1.2 IC50 Ratio closed/inact. (CAv1.2) | IC50 (T-type calcium channel [1]; [7]) [µM] | IC50 (T-type calcium channel [1]; [8]) [µM] | CAv3.2 IC50 Ratio closed/inact. (T-type calcium channel [1]) | IC50 (T-type calcium channel [2]) [µM]
CC(C)S(=O)(=O)c1cc(C(F)(F)F)cnc1C(=O)N[C@H]1C[C@H](C(C)(C)S(=O)(=O)c2cc(F)cc(C(F)(F)F)c2)C1 [Compound 593] | 10 | 0.16 | 62.5 | ≥ 10 | 7.86 | 1.3 | ≥ 10 | 10.4 | 1 | ≥ 10
CC(C)([C@H]1C[C@H](NC(=O)c2ccnc(C(F)(F)F)n2)C1)S(=O)(=O)c1cc(F)cc(C(F)(F)F)c1 [Compound 595] | 3.63 | 0.21 | 17.3 | ≥ 10 | ≥ 10 | – | ≥ 10 | 9.83 | 1 | ≥ 10
CC(C)([C@H]1C[C@H](NC(=O)c2ccc(Cl)c(F)c2)C1)S(=O)(=O)c1cc(F)cc(C(F)(F)F)c1 [Compound 596] | 1.73 | 0.26 | 6.7 | 3.63 | 1.43 | 2.5 | 3.13 | 1.11 | 2.8 | 9.74
CC(C)([C@H]1C[C@H](NC(=O)c2ccc(F)c(Cl)c2)C1)S(=O)(=O)c1cc(F)cc(C(F)(F)F)c1 [Compound 597] | 1.43 | 0.17 | 8.4 | 3.7 | 0.86 | 4.3 | 3.12 | 1.21 | 2.6 | 3.8
CC(C)([C@H]1C[C@@H](NS(=O)(=O)c2ccc(C(F)(F)F)cc2)C1)S(=O)(=O)c1cc(F)cc(C(F)(F)F)c1 [Compound 598] | 5.74 | 0.7 | 8.2 | 9.38 | 2.83 | 3.3 | ≥ 10 | 4.56 | 2.2 | 7.56
CC(C)([C@H]1C[C@@H](NS(=O)(=O)c2ccc(F)c(Cl)c2)C1)S(=O)(=O)c1cc(F)cc(C(F)(F)F)c1 [Compound 599] | 6.14 | 1.03 | 6 | 8.85 | 3.05 | 2.9 | ≥ 10 | 4.4 | 2.3 | 5.59
CC(C)([C@H]1C[C@@H](NS(=O)(=O)c2ccc(Cl)c(F)c2)C1)S(=O)(=O)c1cc(F)cc(C(F)(F)F)c1 [Compound 600] | 5.25 | 0.82 | 6.4 | 6.93 | 2.22 | 3.1 | ≥ 10 | 5.08 | 2 | 3.57
CC(C)([C@H]1C[C@@H](NS(=O)(=O)c2ccc(F)c(C(F)(F)F)c2)C1)S(=O)(=O)c1cc(F)cc(C(F)(F)F)c1 [Compound 601] | 7.07 | 0.9 | 7.9 | 8.84 | 2.86 | 3.1 | ≥ 10 | 4.97 | 2 | 3.82
CC(C)([C@H]1C[C@@H](NS(=O)(=O)c2ccc(C(F)(F)F)nc2)C1)S(=O)(=O)c1cc(F)cc(C(F)(F)F)c1 [Compound 602] | 6.08 | 0.75 | 8.1 | 9.77 | 3.94 | 2.5 | ≥ 10 | 5.38 | 1.9 | 6.36
CC(C)([C@H]1C[C@@H](NS(=O)(=O)c2ccc(OC(F)(F)F)cc2)C1)S(=O)(=O)c1cc(F)cc(C(F)(F)F)c1 [Compound 603] | 4.17 | 0.61 | 6.8 | 6.92 | 2.12 | 3.3 | ≥ 10 | 6.46 | 1.5 | 5.48
CC(C)([C@H]1C[C@H](NS(=O)(=O)c2ccc(C(F)(F)F)cc2)C1)S(=O)(=O)c1cc(F)cc(C(F)(F)F)c1 [Compound 605] | 5.4 | 0.87 | 6.2 | 5.29 | 1.92 | 2.8 | 4.79 | 2.21 | 2.2 | 4.35
CC(C)([C@H]1C[C@H](NS(=O)(=O)c2ccc(F)c(Cl)c2)C1)S(=O)(=O)c1cc(F)cc(C(F)(F)F)c1 [Compound 606] | 2.51 | 0.92 | 2.7 | 5.65 | 2.76 | 2 | 8.53 | 3.57 | 2.4 | 4.17
CC(C)([C@H]1C[C@H](NS(=O)(=O)c2ccc(Cl)c(F)c2)C1)S(=O)(=O)c1cc(F)cc(C(F)(F)F)c1 [Compound 607] | 2.97 | 1.15 | 2.6 | 7.78 | 2.99 | 2.6 | ≥ 10 | 3.73 | 2.7 | 5.43
CC(C)([C@H]1C[C@H](NS(=O)(=O)c2ccc(F)c(C(F)(F)F)c2)C1)S(=O)(=O)c1cc(F)cc(C(F)(F)F)c1 [Compound 608] | 4.03 | 1.1 | 3.7 | 7.75 | 2.45 | 3.2 | ≥ 10 | 2.58 | 3.9 | 4.92
CC(C)([C@H]1C[C@H](NS(=O)(=O)c2ccc(C(F)(F)F)nc2)C1)S(=O)(=O)c1cc(F)cc(C(F)(F)F)c1 [Compound 609] | 4.17 | 1.17 | 3.6 | 9.99 | 4.32 | 2.3 | ≥ 10 | 2.54 | 3.9 | 9.91
CC(C)([C@H]1C[C@H](NS(=O)(=O)c2ccc(OC(F)(F)F)cc2)C1)S(=O)(=O)c1cc(F)cc(C(F)(F)F)c1 [Compound 610] | 3.58 | 1.13 | 3.2 | 8.93 | 2.93 | 3 | ≥ 10 | 1.43 | 7 | 5.3
Cc1nc(S(=O)(=O)N[C@H]2C[C@H](C(C)(C)S(=O)(=O)c3cc(F)cc(C(F)(F)F)c3)C2)cn1C [Compound 611] | 10 | 9.14 | 1.1 | ≥ 10 | ≥ 10 | – | – | 10 | – | ≥ 10
CC(C)(C1CC(CNC(=O)c2ccc(C(F)(F)F)cc2S(C)(=O)=O)C1)S(=O)(=O)c1cccc(C(F)(F)F)c1 (centres unmarked) [Compound 612] | 8.54 | 0.54 | 15.8 | ≥ 10 | 4.17 | 2.4 | 9.28 | 3.95 | 2.3 | ≥ 10
CC(C)S(=O)(=O)c1cc(C(F)(F)F)cnc1C(=O)NCC1CC(C(C)(C)S(=O)(=O)c2cccc(C(F)(F)F)c2)C1 (centres unmarked) [Compound 613] | 6.51 | 0.35 | 18.6 | 8 | 5.92 | 1.4 | 9.16 | 5.45 | 1.7 | ≥ 10
CC(C)(C1CC(CNC(=O)c2cc(C(F)(F)F)n[nH]2)C1)S(=O)(=O)c1cccc(C(F)(F)F)c1 (centres unmarked) [Compound 614] | 2.87 | 0.49 | 5.9 | 8.03 | 2.41 | 3.3 | 7.2 | 3.2 | 2.3 | ≥ 10
CC(C)(C1CC(CNC(=O)c2ccnc(C(F)(F)F)n2)C1)S(=O)(=O)c1cccc(C(F)(F)F)c1 (centres unmarked) [Compound 615] | 1.37 | 0.25 | 5.5 | ≥ 10 | 5.61 | 1.8 | ≥ 10 | 7.17 | 1.4 | ≥ 10
